Assay results reported in PMC4862888 (Journal of chromatography. B, Analytical technologies in …, 2015).

Target: human serum albumin (HSA) (Homo sapiens, UniProt P02768)
Assay: zonal elution, high-performance affinity chromatography on entrapped HSA
Type: binding

Chain of human serum albumin (HSA) (P02768 25-609): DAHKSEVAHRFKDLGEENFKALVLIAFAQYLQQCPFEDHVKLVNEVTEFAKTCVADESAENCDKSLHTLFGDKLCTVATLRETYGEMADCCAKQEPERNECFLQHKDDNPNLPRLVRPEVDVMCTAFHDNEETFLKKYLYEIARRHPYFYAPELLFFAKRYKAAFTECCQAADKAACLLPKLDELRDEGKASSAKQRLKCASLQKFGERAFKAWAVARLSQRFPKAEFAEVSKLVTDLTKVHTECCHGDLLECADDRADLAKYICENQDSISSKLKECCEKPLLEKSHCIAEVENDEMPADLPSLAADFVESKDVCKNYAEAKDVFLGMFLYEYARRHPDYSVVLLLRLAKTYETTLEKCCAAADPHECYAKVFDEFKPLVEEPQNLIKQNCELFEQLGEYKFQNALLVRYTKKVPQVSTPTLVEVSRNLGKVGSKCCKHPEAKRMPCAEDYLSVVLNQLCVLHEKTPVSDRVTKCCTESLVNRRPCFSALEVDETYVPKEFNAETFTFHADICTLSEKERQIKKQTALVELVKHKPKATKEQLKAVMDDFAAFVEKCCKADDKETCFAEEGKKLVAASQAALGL

| Kd [µM] | Compound |
| --- | --- |
| 625 | O=C(N[C@H](CO)[C@H](O)c1ccc([N+](=O)[O-])cc1)C(Cl)Cl [chloramphenicol] |
| 16.1 | CNCCC=C1c2ccccc2CCc2ccccc21 [nortriptyline] |

| Compound | Kd [µM] |
| --- | --- |
| CN(C)CCC=C1c2ccccc2CCc2ccccc21 [amitriptyline] | 17.9 |
